Source: patent publication US20190106460A1, “BINDING INHIBITORS OF THE BETA. TRANSDUCIN REPEAT-CONTAINING PROTEIN” (priority 2011, published 2019)
Starred links: 1 amine or outer side, 2 acyl side, 3 side chain; linkers in the order of their positions; H or OH if unused. Non-standard residues stand in square brackets, D forms with d. Residues, ends and D or L forms follow the SMILES beside them. No end group written: not given here. *: point of attachment. Phe(4-NO2) = N[C@@H](Cc1ccc([N+](=O)[O-])cc1)C(=O)O; Phe(3-F) = N[C@@H](Cc1cccc(F)c1)C(=O)O; 1Nal = N[C@@H](Cc1cccc2ccccc12)C(=O)O; NMeE = CN[C@@H](CCC(=O)O)C(=O)O; Suc = O=C(CCC(=O)[*:2])[*:1]; Tos = Cc1ccc(S(=O)(=O)*)cc1

Tests used:
βTrCP [1] = molecular target: βTrCP (Homo sapiens, UniProt Q9Y297); assay: Fluorescence polarisation (FP) binding assay with fluorescein-tagged IκB peptide; details: Tables 1, 3, 7, 8; 10 nM fluorescein-tagged IκB peptide; read-out: FP Assay IC50/μM
Target sequence in this assay (P63208 whole entry partner, one chain of several): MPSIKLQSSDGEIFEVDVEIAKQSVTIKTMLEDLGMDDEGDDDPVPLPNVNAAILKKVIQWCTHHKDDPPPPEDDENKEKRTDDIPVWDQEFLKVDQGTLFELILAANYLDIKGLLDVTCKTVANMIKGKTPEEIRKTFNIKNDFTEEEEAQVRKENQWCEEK

FBW7/Skp1 = FBW7/Skp1 (Homo sapiens, UniProt Q969H0); assay: Selectivity assay vs other E3s: Fbw7; type: biochemical
Sequence of FBW7/Skp1 (Q969H0 whole entry, species assumed): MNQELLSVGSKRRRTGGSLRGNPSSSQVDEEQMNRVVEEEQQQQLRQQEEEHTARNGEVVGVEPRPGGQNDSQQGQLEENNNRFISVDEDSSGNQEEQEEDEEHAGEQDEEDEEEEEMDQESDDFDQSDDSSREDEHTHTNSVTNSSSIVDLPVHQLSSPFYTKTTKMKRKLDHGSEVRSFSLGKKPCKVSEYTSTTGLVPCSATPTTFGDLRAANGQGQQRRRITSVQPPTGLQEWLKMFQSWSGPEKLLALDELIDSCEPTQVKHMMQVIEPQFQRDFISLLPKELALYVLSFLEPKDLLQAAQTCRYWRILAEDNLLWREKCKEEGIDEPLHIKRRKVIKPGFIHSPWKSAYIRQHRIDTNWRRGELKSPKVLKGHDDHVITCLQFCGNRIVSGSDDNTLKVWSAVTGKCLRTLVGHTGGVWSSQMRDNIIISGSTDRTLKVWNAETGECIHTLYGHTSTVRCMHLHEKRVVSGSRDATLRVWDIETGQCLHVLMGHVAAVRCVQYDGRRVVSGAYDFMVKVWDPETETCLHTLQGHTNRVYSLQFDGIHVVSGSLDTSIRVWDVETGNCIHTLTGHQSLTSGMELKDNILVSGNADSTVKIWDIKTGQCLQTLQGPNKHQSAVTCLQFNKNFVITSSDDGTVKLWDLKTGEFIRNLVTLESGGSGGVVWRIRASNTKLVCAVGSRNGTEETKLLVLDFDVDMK
Sequence of FBW7/Skp1 (P63208 whole entry partner, species assumed): as the sequence (P63208 whole entry partner, one chain of several) above
Sequence of FBW7/Skp1 (Q13616 whole entry partner, species assumed): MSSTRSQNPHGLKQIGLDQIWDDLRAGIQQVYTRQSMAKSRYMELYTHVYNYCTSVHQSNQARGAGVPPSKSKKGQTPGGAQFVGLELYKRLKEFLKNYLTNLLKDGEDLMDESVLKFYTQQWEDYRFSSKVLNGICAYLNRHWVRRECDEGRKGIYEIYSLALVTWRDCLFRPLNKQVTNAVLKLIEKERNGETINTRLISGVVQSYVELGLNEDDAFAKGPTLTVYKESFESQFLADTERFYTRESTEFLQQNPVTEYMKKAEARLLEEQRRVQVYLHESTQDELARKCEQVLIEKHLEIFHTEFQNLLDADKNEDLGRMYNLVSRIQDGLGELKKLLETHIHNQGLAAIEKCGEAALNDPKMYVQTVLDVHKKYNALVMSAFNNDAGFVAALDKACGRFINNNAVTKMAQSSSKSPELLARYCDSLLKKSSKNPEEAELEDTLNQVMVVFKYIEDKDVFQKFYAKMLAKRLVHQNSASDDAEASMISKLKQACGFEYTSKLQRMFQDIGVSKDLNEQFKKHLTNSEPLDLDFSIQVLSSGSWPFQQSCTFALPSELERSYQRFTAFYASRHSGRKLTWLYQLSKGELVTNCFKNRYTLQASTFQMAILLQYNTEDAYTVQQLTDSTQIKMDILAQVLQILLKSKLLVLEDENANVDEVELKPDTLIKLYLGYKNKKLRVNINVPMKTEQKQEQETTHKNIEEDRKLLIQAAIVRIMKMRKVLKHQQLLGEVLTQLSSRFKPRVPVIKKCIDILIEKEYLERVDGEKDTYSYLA
Sequence of FBW7/Skp1 (P62877 whole entry partner, species assumed): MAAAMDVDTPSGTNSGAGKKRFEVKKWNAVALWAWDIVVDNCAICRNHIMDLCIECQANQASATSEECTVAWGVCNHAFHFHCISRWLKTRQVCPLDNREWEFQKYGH
Method: (§1) βTrCP Ubiquitination Assay and Selectivity Assays
(§2) Master mixes were prepared in a 50 mM Herpes buffer at pH 7.5, in 75 mM NaCl and 1 mM DTT without Mg or ATP and peptides were added to a final concentration of 100 μM. Reactions were incubated at room temperature for 30 minutes and then Mg/ATP was added to the mix. Reactions were further incubated for an additional 60 minutes and then stopped by adding SDS gel loading buffer and boiled for 5 minutes. Reactions were run on SDS-PAGE (10%) and transferred to nitrocellulose membranes and probed with HRP-Streptavidin.
FBW7 selectivity assays were performed in the same manner except using FBW7/Skp1 as E3 component and cyclin E as the substrate. Blots were probed using anti-cyclin E antibody.
(§3) Candidate compounds were tested for inhibition of Fbw7 and Skp2 as described above.

βTrCP [2] = molecular target: T1, βTrCP (Homo sapiens, UniProt Q9Y297); assay: Biotin pull down assay with biotinylated IκB peptide; type: binding; details: 100 μM compound
T1 sequence (Q9Y297 1-605): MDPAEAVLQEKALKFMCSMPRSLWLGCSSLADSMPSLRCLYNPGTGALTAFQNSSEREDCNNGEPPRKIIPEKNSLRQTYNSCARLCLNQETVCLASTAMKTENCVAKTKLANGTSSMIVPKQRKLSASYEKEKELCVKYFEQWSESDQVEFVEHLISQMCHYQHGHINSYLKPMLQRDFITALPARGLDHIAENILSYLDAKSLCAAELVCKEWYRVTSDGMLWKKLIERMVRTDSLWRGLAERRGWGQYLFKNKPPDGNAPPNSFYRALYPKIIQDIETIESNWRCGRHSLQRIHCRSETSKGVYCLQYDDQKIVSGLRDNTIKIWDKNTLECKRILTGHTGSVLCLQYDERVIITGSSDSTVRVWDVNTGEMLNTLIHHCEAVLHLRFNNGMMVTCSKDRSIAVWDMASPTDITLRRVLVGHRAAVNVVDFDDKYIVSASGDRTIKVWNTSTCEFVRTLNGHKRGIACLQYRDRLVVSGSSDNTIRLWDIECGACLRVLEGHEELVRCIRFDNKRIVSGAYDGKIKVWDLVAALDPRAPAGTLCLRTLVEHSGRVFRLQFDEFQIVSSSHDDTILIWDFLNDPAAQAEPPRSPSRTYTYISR

Skp2 = Skp2 (Homo sapiens, UniProt Q13309); assay: Selectivity assay vs other E3s: Skp2; type: biochemical
Sequence of Skp2 (Q13309 whole entry, species assumed): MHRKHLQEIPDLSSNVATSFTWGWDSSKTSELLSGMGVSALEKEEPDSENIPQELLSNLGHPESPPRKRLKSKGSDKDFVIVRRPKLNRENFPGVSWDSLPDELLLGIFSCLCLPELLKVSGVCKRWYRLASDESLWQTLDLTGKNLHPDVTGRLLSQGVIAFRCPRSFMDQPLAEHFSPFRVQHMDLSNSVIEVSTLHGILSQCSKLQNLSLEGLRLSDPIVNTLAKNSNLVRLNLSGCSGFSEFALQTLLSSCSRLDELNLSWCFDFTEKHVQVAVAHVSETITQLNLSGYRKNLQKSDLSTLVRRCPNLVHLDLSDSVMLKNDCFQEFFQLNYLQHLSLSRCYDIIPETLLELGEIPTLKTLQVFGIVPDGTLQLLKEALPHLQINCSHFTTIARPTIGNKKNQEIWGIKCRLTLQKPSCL
Sequence of Skp2 (P63208 whole entry partner, species assumed): as the sequence (P63208 whole entry partner, one chain of several) above
Sequence of Skp2 (Q13616 whole entry partner, species assumed): as the sequence (Q13616 whole entry partner, species assumed) above
Sequence of Skp2 (P62877 whole entry partner, species assumed): as the sequence (P62877 whole entry partner, species assumed) above
Method: as §1, §2, §3

β-TrCP1/Skp1 = β-TrCP1/Skp1 (Homo sapiens, UniProt Q9Y297); assay: βTrCP ubiquitination assay (Ub assay); type: biochemical; details: 100 μM compound
Sequence of β-TrCP1/Skp1 (P63208 2-163 partner limits assumed, one chain of several): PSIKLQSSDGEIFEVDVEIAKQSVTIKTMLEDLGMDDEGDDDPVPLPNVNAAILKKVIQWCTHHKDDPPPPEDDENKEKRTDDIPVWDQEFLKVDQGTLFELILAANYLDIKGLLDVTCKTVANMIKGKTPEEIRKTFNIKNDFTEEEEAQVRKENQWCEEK
Method: as §1
0.5 μM Peptide substrate (biotin)
as §2
Candidate compounds were tested in duplicate at both 10 and 100 μM against the E3 ligase cascades βTrCP(IκBα) and βTrCP(β-catenin). The E3 assays were carried out according to the component concentrations detailed in Table 9. In each case the E2 was HA,6His-UbcH3-(hu,FL), the E1 was 6His-UBE1-(hu,FL) and the ubiquitin (Sigma U6253) was biotinylated at a 5:1 ratio. Substrate phosphorylation was performed in the absence of compound; consequently any observed signal modulation should not reflect inhibition of the up-stream kinase reaction. All other steps (E1, E2 and substrate ubiquitination) were carried out in the presence of compound. The stopped reaction mix (10 μl) was added to an ECL plate loaded with anti c-Myc ( 1/500 Dilution, Millipore 05-724) and blocked with 5% BSA. Binding was allowed to proceed for 1 hour at RT before a wash step (3 40 μl PBST washes). Detection was achieved by binding SA-Ru TAG at 1 μg/ml (1 hour @ RT, 3 40 μl PBST washes) before reading on an MSD Sector Imager 6000.
Assays were performed as described above

Q: Which IC50 (βTrCP [1]) does the source give for `C[C@H](NC(=O)CCC(=O)O)C(=O)NCC(=O)N[C@@H](Cc1cccc(F)c1)C(=O)N[C@@H](Cc1ccc([N+](=O)[O-])cc1)C(=O)N[C@@H](CCC(=O)O)C(N)=O` [Suc-AG-F(3F)-F(4NO2)-E-NH2] (Suc-AG[Phe(3-F)][Phe(4-NO2)]E-NH2) here?
A: 8.01 µM

Q: `C[C@H](NC(=O)[C@H](CCC(=O)O)NC(=O)CCC(=O)O)C(=O)N[C@@H](Cc1ccc(O)cc1)C(=O)N[C@@H](Cc1ccccc1)C(=O)N[C@@H](CCC(=O)O)C(N)=O` [Suc-EAYFE-NH2] was tested. Which IC50 (βTrCP [1]) did it give?
A: 82.1 µM

Q: Which IC50 (βTrCP [1]) does the source give for `NC(=O)[C@H](CCC(=O)O)NC(=O)[C@H](Cc1cccc2ccccc12)NC(=O)[C@H](Cc1ccc([N+](=O)[O-])cc1)NC(=O)CNC(=O)[C@@H](N)CCC(=O)O` [EG-F(4NO2)-1Nal-E-NH2] (H-EG[Phe(4-NO2)][1Nal]E-NH2) here?
A: > 100 µM

Q: With `NC(=O)[C@H](Cc1ccc([N+](=O)[O-])cc1)NC(=O)[C@H](Cc1ccccc1)NC(=O)CNC(=O)[C@H](CCC(=O)O)NC(=O)CCC(=O)O` [Suc-EGF-F(4NO2)-NH2] (Suc-EGF[Phe(4-NO2)]-NH2) as the molecule, how does the IC50 (βTrCP [1]) read?
A: > 100 µM

Q: `C[C@H](NC(=O)CCC(=O)O)C(=O)NCC(=O)N[C@@H](Cc1ccc(O)cc1)C(=O)N[C@@H](Cc1ccccc1)C(=O)N[C@@H](CCC(=O)O)C(N)=O` [Suc-AGYFE-NH2] was tested. Which IC50 (βTrCP [1]) did it give?
A: 22.2 µM

Q: How did the IC50 (βTrCP [1]) turn out when `NC(=O)CC[C@H](NC(=O)[C@H](Cc1cccc2ccccc12)NC(=O)[C@H](Cc1cccc(F)c1)NC(=O)CNC(=O)[C@H](CCC(=O)O)NC(=O)CCC(=O)O)C(N)=O` [Suc-EG-F(3F)-1Nal-Q-NH2] (Suc-EG[Phe(3-F)][1Nal]Q-NH2) was run?
A: 7.22 µM

Q: Which IC50 (βTrCP [1]) does the source give for DDASGIHS-NH2 [DDASGIHS-NH2] here?
A: > 100 µM

Q: How did the IC50 (βTrCP [1]) turn out when `NC(=O)[C@H](Cc1cccc(F)c1)NC(=O)[C@H](Cc1ccccc1)NC(=O)CNC(=O)[C@H](CCC(=O)O)NC(=O)CCC(=O)O` [Suc-EGF-F(3F)-NH2] (Suc-EGF[Phe(3-F)]-NH2) was run?
A: > 100 µM

Q: How did the IC50 (βTrCP [1]) turn out when `CC[C@H](C)[C@H](NC(=O)CNC(=O)[C@H](CCC(=O)O)NC(=O)CCC(=O)O)C(=O)N[C@@H](Cc1ccccc1)C(=O)N[C@@H](CCC(=O)O)C(N)=O` [Suc-EGIFE-NH2] (Suc-EGIFE-NH2) was run?
A: > 100 µM

Q: `Cc1ccc(S(=O)(=O)N[C@H](CC(=O)O)C(=O)N[C@@H](CCC(=O)O)C(=O)NCC(=O)N[C@@H](Cc2cccc(F)c2)C(=O)N[C@@H](Cc2c[nH]c3ccccc23)C(=O)N(C)[C@@H](CCC(=O)O)C(N)=O)cc1` [UBP032, Ts-dEGF(3F)WE(Me)-NH2] (Tos-[dD]EG[Phe(3-F)]W[NMeE]-NH2) was tested. Which inhibition at 100 µM (FBW7/Skp1; 100 μM, value in brackets, read-out: % Inhibition Fbw7 @ (100 μM)) did it give?
A: 10%

Q: And the inhibition at 10 µM (FBW7/Skp1; read-out: % Inhibition Fbw7 @ 10 μM)?
A: 4%

Q: What about the “Biotin Pulldown Assay 100 μM” value (βTrCP [2]) of the same molecule?
A: inhibits

Q: What about the inhibition at 100 µM (Skp2; 100 μM, value in brackets, read-out: % Inhibition Skp2 @ (100 μM)) of the same molecule?
A: 0%

Q: And the inhibition at 10 µM (Skp2; read-out: % Inhibition Skp2 @ 10 μM)?
A: 0%

Q: And the “Ub Assay 100 μM” value (β-TrCP1/Skp1)?
A: inhibits

Q: With DAGIFH-NH2 [DAGIFH-NH2] as the molecule, how does the IC50 (βTrCP [1]) read?
A: > 100 µM

Q: For DAGFFE-NH2 [DAGFFE-NH2], which IC50 (βTrCP [1]) is on record?
A: > 100 µM
